Measurements from patent publication US12312419B2, “Hemiasterlin derivative having cysteine residue” (priority 2019, dated 2025).

How the values were obtained:
porcine tubulin [1] = experiment: Evaluation of activity for inhibiting microtubule polymerization using porcine tubulins (2); assay type: biochemical; details: compound 9.1 μM; 60 minutes after assay initiation; relative to wells without compound; lower = stronger inhibition
Description: (§1) Using a tubulin polymerization inhibition assay kit (catalog number: BK006P) purchased from Cytoskeleton Inc., the polymerization inhibitory activity of compounds of Examples with a concentration of 9.1 μM was evaluated in accordance with the protocol appended to the kit. To a 96 well microplate, 80 mM PIPES pH 6.9, 2 mM MgCl, 0.5 mM EGTA and 5% DMSO buffered solution of the compound to be evaluated was added in an amount of 10 μL for each well, and to these wells, 3 mg/mL porcine tubulin 80 mM PIPES pH 6.9, 2 mM MgCl, 0.5 mM EGTA, 1 mM GTP and 10.2% glycerol solution was added in an amount of 100 μL for each well. In order to examine a state in which tubulins polymerize over time, the absorbance at 340 nm was measured at 37° C., using a microplate reader. As the polymerization of tubulins progresses, the absorbance at 340 nm rises.
The tubulin polymerization inhibitory activity was evaluated based on the proportion of polymerized tubulins 60 minutes after the assay initiation. Specifically, the microtubule polymerization rate (%) was calculated by dividing the absorbance of tubulins that had polymerized at wells to which the compound had been added by the absorbance of tubulins that had polymerized at wells to which the compound had not been added, and multiplying the obtained value by 100.

Karpas-299 cells = experiment: Cellular toxicity test (1), CellTiter-Glo cell viability; assay type: cell-based, human; details: Homo sapiens, 96 h; Karpas-299; cultured 4 days; cell viability
Description: Karpas-299 cells (European Collection of Authenticated Cell Cultures, hereinafter, ECACC), which are human lymphoma cell lines, were cultured in RPMI 1640 (GIBCO) containing 10% fetal bovine serum (MP Biomedicals) (hereinafter, referred to as the “culture medium”). Cells were prepared to be 2×10^5 cells/mL in the culture medium, and were added to a 96 well microplate for cell culturing in an amount of 50 μL for each well. Compounds of Examples or the Comparative Example compound 4 times diluted with the culture medium in 8 stages were added to the microplate in an amount of 50 μL for each well. These were cultured at 37° C. under 5% CO2 for 4 days. After culturing, the microplate was taken out from the incubator, and was left at rest at room temperature for 10 minutes. To each well, 50 μL of CellTiter-Glo Luminescent Cell Viability Assay (Promega) was added, and the resultant mixture was stirred. This mixture was incubated at a dark place for 20 minutes. Using a microplate luminometer, luminescence at each well was measured, thereby calculating the cell viability. From the value of the cell viability, the IC50 value was calculated.
The IC50 value was calculated by the following formula: IC50(nM)=antilog(LOG10(a/b)×(e−d)/(c−d)+LOG10b) • a: concentration a of test substance • b: concentration b of test substance • c: cell viability upon adding test substance with concentration a • d: cell viability upon adding test substance with concentration b • e: intermediate value between maximum and minimum among cell viabilities upon adding test substances with different concentrations (a and b are concentrations crossing the cell viability e, and a>b is indicated).
The cell viability at each concentration was calculated by the following formula: Cell Viability (%)=a′/b′×100 • a′: mean value of luminescence amount of wells to which test substance was added (n=6) • b′: mean value of luminescence amount of wells to which test substance was not added (n=6) • (n represents the number of evaluations performed per test substance concentration).

porcine tubulin [2] = experiment: Evaluation of activity for inhibiting microtubule polymerization using porcine tubulins (1); assay type: biochemical; details: compound 9.1 μM; absorbance at 340 nm at 37° C. over time; FIG. 1
Description: as §1, with “In summary of the protocol, to” for “To”, “mg/ml” for “mg/mL”

Compound	Microtubule polymerization rate (%) (porcine tubulin [1])	IC50 (Karpas-299 cells)	activity for inhibiting microtubule polymerization (porcine tubulin [2])
CN[C@H](C(=O)N[C@H](C(=O)N(C)[C@H](/C=C(\C)C(=O)NCCCCNC(=O)CCCCCN1C(=O)CC(SC[C@H](N)C(=O)O)C1=O)C(C)C)C(C)(C)C)C(C)(C)c1cn(C)c2ccccc12 (some centres unmarked) [Comparative Example compound 2, reference compound]	0%	30 nM	
CN[C@H](C(=O)N[C@H](C(=O)N(C)[C@H](/C=C(\C)C(=O)N[C@H](CCC(=O)NCCN1C(=O)CC(SC[C@H](N)C(=O)O)C1=O)C(=O)O)C(C)C)C(C)(C)C)C(C)(C)c1ccccc1 (stereo partly drawn) [Example MM1, (3S,6S,9S,10E,14R)-14-(3-{[2-(3-{[(2R)-2-Amino-2-carboxyethyl]sulfanyl}-2,5-dioxopyrrolidin-1-yl)ethyl]amino}-3-oxopropyl)-6-tert-butyl-8,11-dimethyl-4,7,12-trioxo-3-(2-phenylpropan-2-yl)-9-(propan-2-yl)-2,5,8,13-tetraazapentadec-10-en-15-oic Acid]	9%	> 1000 nM	exhibited activities for inhibiting microtubule polymerization
CN[C@H](C(=O)N[C@H](C(=O)N(C)[C@H](/C=C(\C)C(=O)N[C@@H](CCC(=O)NCCN1C(=O)CC(SC[C@H](N)C(=O)O)C1=O)C(=O)O)C(C)C)C(C)(C)C)C(C)(C)c1ccccc1 (some centres unmarked) [Example MM11]	0%	> 1000 nM	
CN[C@H](C(=O)N[C@H](C(=O)N(C)[C@H](/C=C(\C)C(=O)N[C@H](CCC(=O)O)C(=O)NCCN1C(=O)CC(SC[C@H](N)C(=O)O)C1=O)C(C)C)C(C)(C)C)C(C)(C)c1ccccc1 (some centres unmarked) [Example MM15]	0%	> 1000 nM	
CN[C@H](C(=O)N[C@H](C(=O)N(C)[C@H](/C=C(\C)C(=O)N[C@H](CCC(=O)NCCCCN1C(=O)CC(SC[C@H](N)C(=O)O)C1=O)C(=O)O)C(C)C)C(C)(C)C)C(C)(C)c1ccccc1 (some centres unmarked) [Example MM17]	0%	850 nM	
CN[C@H](C(=O)N[C@H](C(=O)N(C)[C@H](/C=C(\C)C(=O)N[C@@H](CCC(=O)NCCN1C(=O)CC(SC[C@H](N)C(=O)O)C1=O)C(=O)O)C(C)C)C(C)(C)C)C(C)(C)c1cn(C)c2ccccc12 (some centres unmarked) [Example MM18]	0%	541 nM	
CN[C@H](C(=O)N[C@H](C(=O)N(C)[C@H](/C=C(\C)C(=O)N[C@H](CCC(=O)NCCCN1C(=O)CC(SC[C@H](N)C(=O)O)C1=O)C(=O)O)C(C)C)C(C)(C)C)C(C)(C)c1cn(C)c2ccccc12 (some centres unmarked) [Example MM23]	0%	942 nM	
CN[C@H](C(=O)N[C@H](C(=O)N(C)[C@H](/C=C(\C)C(=O)NCCCC[C@@H](NC(=O)CCCN1C(=O)CC(SC[C@H](N)C(=O)O)C1=O)C(=O)O)C(C)C)C(C)(C)C)C(C)(C)c1ccccc1 (some centres unmarked) [Example MM28]	0%	> 1000 nM	
CN[C@H](C(=O)N[C@H](C(=O)N(C)[C@H](/C=C(\C)C(=O)N[C@H](CCC(=O)NCCN1C(=O)CC(SC[C@H](N)C(=O)O)C1=O)C(=O)O)C(C)C)C(C)(C)C)C(C)(C)c1cccc(C(F)(F)F)c1 (some centres unmarked) [Example MM30]	12%	> 1000 nM	
CN[C@H](C(=O)N[C@H](C(=O)N(C)[C@H](/C=C(\C)C(=O)N[C@H](CCC(=O)NCCN1C(=O)CC(SC[C@H](N)C(=O)O)C1=O)C(=O)O)C(C)C)C(C)(C)C)C(C)(C)C1CCCCC1 (some centres unmarked) [Example MM32]	0%	> 1000 nM	
CN[C@H](C(=O)N[C@H](C(=O)N(C)[C@H](/C=C(\C)C(=O)N[C@H](CCC(=O)NCCN1C(=O)CC(SC[C@H](N)C(=O)O)C1=O)C(=O)O)C(C)C)C(C)(C)C)C(C)(C)c1cccc(-c2ccccc2)c1 (some centres unmarked) [Example MM39]		118 nM	
CN[C@H](C(=O)N[C@H](C(=O)N(C)[C@H](/C=C(\C)C(=O)N[C@H](CCC(=O)NCCN1C(=O)CC(SC[C@H](N)C(=O)O)C1=O)C(=O)O)C(C)C)C(C)(C)C)C(C)(C)c1cccc(C)c1 (some centres unmarked) [Example MM40]		146 nM	
CNC(C(=O)N[C@H](C(=O)N(C)[C@H](/C=C(\C)C(=O)N[C@H](CCC(=O)O)C(=O)O)C(C)C)C(C)(C)C)C(C)(C)c1ccc(C(=O)NCCN2C(=O)CC(SC[C@H](N)C(=O)O)C2=O)cc1 (some centres unmarked) [Example MM43]		> 1000 nM	
C/C(=C\[C@H](C(C)C)N(C)C(=O)[C@@H](NC(=O)[C@@H](NC(=O)CCCCCN1C(=O)CC(SC[C@H](N)C(=O)O)C1=O)C(C)(C)c1cn(C)c2ccccc12)C(C)(C)C)C(=O)N[C@H](CCC(=O)O)C(=O)O (some centres unmarked) [Example MM44]		> 1000 nM	
C/C(=C\[C@H](C(C)C)N(C)C(=O)[C@@H](NC(=O)[C@@H](N)C(C)(C)c1ccccc1)C(C)(C)C)C(=O)N[C@H](CCC(=O)NCCN1C(=O)CC(SC[C@H](N)C(=O)O)C1=O)C(=O)O (some centres unmarked) [Example MM45]	56%	> 1000 nM	
C/C(=C\[C@H](C(C)C)N(C)C(=O)[C@@H](NC(=O)[C@@H](N(C)C)C(C)(C)c1ccccc1)C(C)(C)C)C(=O)N[C@H](CCC(=O)NCCN1C(=O)CC(SC[C@H](N)C(=O)O)C1=O)C(=O)O (some centres unmarked) [Example MM46]	0%	> 1000 nM	
